# Active and inactive are the calls of the source. The calls are words filed in the database; no cut-off is given here.
# Tests used:
# [1] = tested on: Epidermal growth factor receptor (Homo sapiens), P00533 [UNDEFINED MUTATION]; settings: Compound concentration 1000.0 nM
# [2] = tested on: Fibroblast growth factor receptor 3 (Homo sapiens), P22607 [G697C]; settings: Compound concentration 1000.0 nM
# [3] = tested on: Receptor-type tyrosine-protein kinase FLT3 (Homo sapiens), P36888 [UNDEFINED MUTATION]; settings: Compound concentration 1000.0 nM
# [4] = target: Dual specificity mitogen-activated protein kinase kinase 1 (Homo sapiens) (UniProt Q02750); settings: Compound concentration 1000.0 nM
# [5] = target: Mitogen-activated protein kinase 11 (Homo sapiens) (UniProt Q15759); settings: Compound concentration 1000.0 nM
# [6] = target: Protein kinase C eta type (Homo sapiens) (UniProt P24723); settings: Compound concentration 1000.0 nM
# [7] = target: Ribosomal protein S6 kinase alpha-5 (Homo sapiens) (UniProt O75582); settings: Compound concentration 1000.0 nM
# [8] = target: Activated CDC42 kinase 1 (Homo sapiens) (UniProt Q07912); settings: Compound concentration 1000.0 nM
# [9] = target: GABA-A receptor; anion channel (Rattus norvegicus) (UniProt O09028+P15431+P18506+P18508+P19969+P20236+P23574+P23576+P28471+P28473+P30191+P62813+P63079+P63138+Q91ZM7+Q9ES14); settings: Compound concentration 10.0 uM
# [10] = target: T1, 5-hydroxytryptamine receptor 3A (Homo sapiens) (UniProt P46098); test: 5HT3/HU Eurofins-Panlabs selectivity data (BI); settings: Compound concentration 10.0 uM
# T1 sequence (whole entry): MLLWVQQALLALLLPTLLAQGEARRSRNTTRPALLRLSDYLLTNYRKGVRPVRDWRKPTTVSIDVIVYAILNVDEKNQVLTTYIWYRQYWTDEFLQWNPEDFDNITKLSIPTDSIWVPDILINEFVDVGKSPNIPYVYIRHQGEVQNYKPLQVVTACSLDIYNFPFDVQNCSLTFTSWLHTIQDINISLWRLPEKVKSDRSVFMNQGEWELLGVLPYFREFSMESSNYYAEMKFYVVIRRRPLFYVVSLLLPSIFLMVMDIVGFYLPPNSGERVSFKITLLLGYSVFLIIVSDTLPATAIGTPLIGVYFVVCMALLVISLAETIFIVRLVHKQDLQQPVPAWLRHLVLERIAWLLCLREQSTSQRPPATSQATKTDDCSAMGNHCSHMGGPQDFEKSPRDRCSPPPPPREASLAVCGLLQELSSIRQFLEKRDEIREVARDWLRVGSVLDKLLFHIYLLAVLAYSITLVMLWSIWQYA
# [11] = target: Adenosine receptor A3 (Homo sapiens) (UniProt P0DMS8); test: A3/H Eurofins-Panlabs selectivity data (BI); settings: Compound concentration 10.0 uM
# [12] = target: Voltage-dependent N-type calcium channel subunit alpha-1B (Rattus norvegicus) (UniProt Q02294); test: CA+/N/RA Eurofins-Panlabs selectivity data (BI); settings: Compound concentration 10.0 uM
# [13] = target: D(3) dopamine receptor (Homo sapiens) (UniProt P35462); test: D3/HU Eurofins-Panlabs selectivity data (BI); settings: Compound concentration 10.0 uM
# [14] = target: Prostaglandin E2 receptor EP4 subtype (Homo sapiens) (UniProt P35408); test: EP4/H Eurofins-Panlabs selectivity data (BI); settings: Compound concentration 10.0 uM
# [15] = target: Estrogen receptor (Homo sapiens) (UniProt P03372); test: ERALPHA/H Eurofins-Panlabs selectivity data (BI); settings: Compound concentration 10.0 uM
# [16] = target: Endothelin-1 receptor (Homo sapiens) (UniProt P25101); test: ETA/HU Eurofins-Panlabs selectivity data (BI); settings: Compound concentration 10.0 uM
# [17] = target: Gamma-aminobutyric acid receptor subunit alpha-1 (Rattus norvegicus) (UniProt P62813); test: GABAA MUSCIMOL CENT Eurofins-Panlabs selectivity data (BI); settings: Compound concentration 10.0 uM
# [18] = target: Gamma-aminobutyric acid receptor subunit alpha-1 (Rattus norvegicus) (UniProt P62813); test: GABAACENTR Eurofins-Panlabs selectivity data (BI); settings: Compound concentration 10.0 uM
# [19] = target: Pyroglutamylated RF-amide peptide receptor (Homo sapiens) (UniProt Q96P65); test: GPR103 Eurofins-Panlabs selectivity data (BI); settings: Compound concentration 10.0 uM
# [20] = target: T2, Muscarinic acetylcholine receptor M1 (Homo sapiens) (UniProt P11229); test: M1/HU Eurofins-Panlabs selectivity data (BI); settings: Compound concentration 10.0 uM
# T2 sequence (whole entry): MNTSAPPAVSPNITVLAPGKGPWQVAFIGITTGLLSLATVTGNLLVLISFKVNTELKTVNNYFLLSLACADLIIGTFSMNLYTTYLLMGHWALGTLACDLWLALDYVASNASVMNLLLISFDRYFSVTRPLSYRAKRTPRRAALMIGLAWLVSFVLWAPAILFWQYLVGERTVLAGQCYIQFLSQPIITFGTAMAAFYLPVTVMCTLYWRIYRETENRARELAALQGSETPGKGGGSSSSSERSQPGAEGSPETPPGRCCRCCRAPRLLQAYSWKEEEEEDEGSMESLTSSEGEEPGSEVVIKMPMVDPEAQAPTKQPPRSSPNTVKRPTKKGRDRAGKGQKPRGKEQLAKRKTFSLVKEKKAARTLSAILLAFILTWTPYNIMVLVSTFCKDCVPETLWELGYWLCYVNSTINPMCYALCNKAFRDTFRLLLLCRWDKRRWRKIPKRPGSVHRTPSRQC
# [21] = target: Mu-type opioid receptor (Homo sapiens) (UniProt P35372); test: MU/HU Eurofins-Panlabs selectivity data (BI); settings: Compound concentration 10.0 uM
# [22] = target: Acetylcholine receptor subunit alpha (Homo sapiens) (UniProt P02708); test: NACH/H Eurofins-Panlabs selectivity data (BI); settings: Compound concentration 10.0 uM
# [23] = target: Substance-P receptor (Homo sapiens) (UniProt P25103); test: NK1/HU Eurofins-Panlabs selectivity data (BI); settings: Compound concentration 10.0 uM
# [24] = target: P2X purinoceptor (Oryctolagus cuniculus) (UniProt G1U3D6); test: P2X/RB Eurofins-Panlabs selectivity data (BI); settings: Compound concentration 10.0 uM
# [25] = target: 5-hydroxytryptamine receptor 5A (Homo sapiens) (UniProt P47898); settings: Compound concentration 10.0 uM
# [26] = target: Histamine H3 receptor (Homo sapiens) (UniProt Q9Y5N1); settings: Compound concentration 10.0 uM
# [27] = target: Beta-2 adrenergic receptor (Homo sapiens) (UniProt P07550); settings: Compound concentration 10.0 uM
# [28] = target: Glutamate receptor ionotropic, kainate 1 (Rattus norvegicus) (UniProt P22756); settings: Compound concentration 10.0 uM
# [29] = Human platelet swelling inhibition (hPSA) assay
# Chain of Protein kinase C eta type (Homo sapiens) (P24723 whole entry): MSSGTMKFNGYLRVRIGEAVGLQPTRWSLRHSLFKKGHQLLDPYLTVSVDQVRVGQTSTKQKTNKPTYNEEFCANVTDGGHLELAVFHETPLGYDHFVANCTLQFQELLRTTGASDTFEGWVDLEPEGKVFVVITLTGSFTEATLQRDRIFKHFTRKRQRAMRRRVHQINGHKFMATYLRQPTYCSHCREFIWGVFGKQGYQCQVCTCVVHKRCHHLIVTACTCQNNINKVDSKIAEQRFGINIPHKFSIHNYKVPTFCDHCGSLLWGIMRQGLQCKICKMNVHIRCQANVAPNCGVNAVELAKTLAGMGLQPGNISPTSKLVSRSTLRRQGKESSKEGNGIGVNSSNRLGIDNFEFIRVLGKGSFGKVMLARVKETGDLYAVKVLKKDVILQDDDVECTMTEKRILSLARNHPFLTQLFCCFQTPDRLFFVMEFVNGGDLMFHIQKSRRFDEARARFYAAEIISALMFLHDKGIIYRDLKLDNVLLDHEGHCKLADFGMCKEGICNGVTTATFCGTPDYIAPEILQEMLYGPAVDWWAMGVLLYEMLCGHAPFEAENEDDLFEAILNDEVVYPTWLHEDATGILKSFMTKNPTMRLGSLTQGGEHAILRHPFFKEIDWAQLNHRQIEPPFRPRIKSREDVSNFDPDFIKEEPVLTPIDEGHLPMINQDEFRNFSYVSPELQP
# Chain of Dual specificity mitogen-activated protein kinase kinase 1 (Homo sapiens) (Q02750 whole entry): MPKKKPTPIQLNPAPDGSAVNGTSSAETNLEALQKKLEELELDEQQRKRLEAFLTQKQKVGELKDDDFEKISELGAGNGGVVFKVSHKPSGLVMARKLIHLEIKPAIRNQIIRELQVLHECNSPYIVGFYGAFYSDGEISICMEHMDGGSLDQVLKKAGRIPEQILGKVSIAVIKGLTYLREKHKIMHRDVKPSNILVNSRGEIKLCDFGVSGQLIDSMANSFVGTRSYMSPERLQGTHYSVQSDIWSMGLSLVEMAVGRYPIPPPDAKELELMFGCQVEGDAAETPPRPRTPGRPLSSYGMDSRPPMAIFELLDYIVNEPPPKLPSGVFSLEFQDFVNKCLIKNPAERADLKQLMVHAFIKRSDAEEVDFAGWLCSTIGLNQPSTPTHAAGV
# Chain of Epidermal growth factor receptor (Homo sapiens), P00533 [UNDEFINED MUTATION] (P00533 whole entry, looked up, stated change not applied): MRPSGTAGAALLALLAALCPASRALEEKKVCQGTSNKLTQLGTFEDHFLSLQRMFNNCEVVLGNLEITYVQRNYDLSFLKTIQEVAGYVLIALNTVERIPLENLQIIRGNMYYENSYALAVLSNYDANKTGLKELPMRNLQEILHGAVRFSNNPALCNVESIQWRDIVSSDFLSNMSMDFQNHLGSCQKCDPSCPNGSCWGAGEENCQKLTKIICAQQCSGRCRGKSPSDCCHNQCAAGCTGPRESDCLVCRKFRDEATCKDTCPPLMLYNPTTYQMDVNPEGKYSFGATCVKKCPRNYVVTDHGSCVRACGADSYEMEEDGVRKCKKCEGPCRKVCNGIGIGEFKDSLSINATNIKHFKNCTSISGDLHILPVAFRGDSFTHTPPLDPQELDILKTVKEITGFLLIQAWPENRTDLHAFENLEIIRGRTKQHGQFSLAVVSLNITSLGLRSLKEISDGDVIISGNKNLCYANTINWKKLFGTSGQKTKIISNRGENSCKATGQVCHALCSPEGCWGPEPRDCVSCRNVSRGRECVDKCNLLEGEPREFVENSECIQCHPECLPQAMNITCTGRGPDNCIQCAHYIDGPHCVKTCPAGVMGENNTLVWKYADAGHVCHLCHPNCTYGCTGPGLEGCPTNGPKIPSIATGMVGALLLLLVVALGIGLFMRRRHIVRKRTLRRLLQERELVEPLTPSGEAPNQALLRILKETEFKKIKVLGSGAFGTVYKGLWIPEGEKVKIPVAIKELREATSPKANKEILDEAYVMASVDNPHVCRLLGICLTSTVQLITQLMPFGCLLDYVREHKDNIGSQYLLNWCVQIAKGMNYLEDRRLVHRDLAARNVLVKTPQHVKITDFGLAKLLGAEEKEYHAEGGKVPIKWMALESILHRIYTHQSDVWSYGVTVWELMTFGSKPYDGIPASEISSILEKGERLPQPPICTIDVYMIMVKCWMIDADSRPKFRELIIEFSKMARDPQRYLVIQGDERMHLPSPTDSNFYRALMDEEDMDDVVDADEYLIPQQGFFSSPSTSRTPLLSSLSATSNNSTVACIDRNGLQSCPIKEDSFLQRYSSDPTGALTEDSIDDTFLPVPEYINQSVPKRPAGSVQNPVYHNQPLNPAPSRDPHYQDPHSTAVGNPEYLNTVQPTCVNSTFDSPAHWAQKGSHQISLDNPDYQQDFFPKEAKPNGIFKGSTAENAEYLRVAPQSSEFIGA
# Chain of Fibroblast growth factor receptor 3 (Homo sapiens), P22607 [G697C] (P22607 whole entry G697C): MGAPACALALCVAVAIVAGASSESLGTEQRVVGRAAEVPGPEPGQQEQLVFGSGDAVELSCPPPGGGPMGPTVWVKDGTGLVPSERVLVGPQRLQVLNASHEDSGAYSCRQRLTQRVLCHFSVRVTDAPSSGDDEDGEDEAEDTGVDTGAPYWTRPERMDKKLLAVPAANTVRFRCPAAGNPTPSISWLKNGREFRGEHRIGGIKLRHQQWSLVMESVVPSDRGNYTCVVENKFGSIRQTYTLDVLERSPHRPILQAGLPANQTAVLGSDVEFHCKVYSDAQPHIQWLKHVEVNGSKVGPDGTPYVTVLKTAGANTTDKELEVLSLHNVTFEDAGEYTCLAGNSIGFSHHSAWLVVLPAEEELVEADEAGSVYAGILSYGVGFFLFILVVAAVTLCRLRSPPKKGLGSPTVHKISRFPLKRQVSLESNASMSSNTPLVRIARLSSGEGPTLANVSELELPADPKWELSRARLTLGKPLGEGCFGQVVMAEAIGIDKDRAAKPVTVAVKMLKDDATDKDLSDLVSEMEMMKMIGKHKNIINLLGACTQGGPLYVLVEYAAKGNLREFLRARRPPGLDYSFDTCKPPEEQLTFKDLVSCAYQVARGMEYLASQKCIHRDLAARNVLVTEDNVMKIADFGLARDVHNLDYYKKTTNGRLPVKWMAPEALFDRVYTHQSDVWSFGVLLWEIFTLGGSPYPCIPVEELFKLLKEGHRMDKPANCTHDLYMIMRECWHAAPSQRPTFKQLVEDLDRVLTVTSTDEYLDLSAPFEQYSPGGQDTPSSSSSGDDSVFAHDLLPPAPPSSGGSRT
# Chain of Receptor-type tyrosine-protein kinase FLT3 (Homo sapiens), P36888 [UNDEFINED MUTATION] (P36888 whole entry, looked up, change not shown): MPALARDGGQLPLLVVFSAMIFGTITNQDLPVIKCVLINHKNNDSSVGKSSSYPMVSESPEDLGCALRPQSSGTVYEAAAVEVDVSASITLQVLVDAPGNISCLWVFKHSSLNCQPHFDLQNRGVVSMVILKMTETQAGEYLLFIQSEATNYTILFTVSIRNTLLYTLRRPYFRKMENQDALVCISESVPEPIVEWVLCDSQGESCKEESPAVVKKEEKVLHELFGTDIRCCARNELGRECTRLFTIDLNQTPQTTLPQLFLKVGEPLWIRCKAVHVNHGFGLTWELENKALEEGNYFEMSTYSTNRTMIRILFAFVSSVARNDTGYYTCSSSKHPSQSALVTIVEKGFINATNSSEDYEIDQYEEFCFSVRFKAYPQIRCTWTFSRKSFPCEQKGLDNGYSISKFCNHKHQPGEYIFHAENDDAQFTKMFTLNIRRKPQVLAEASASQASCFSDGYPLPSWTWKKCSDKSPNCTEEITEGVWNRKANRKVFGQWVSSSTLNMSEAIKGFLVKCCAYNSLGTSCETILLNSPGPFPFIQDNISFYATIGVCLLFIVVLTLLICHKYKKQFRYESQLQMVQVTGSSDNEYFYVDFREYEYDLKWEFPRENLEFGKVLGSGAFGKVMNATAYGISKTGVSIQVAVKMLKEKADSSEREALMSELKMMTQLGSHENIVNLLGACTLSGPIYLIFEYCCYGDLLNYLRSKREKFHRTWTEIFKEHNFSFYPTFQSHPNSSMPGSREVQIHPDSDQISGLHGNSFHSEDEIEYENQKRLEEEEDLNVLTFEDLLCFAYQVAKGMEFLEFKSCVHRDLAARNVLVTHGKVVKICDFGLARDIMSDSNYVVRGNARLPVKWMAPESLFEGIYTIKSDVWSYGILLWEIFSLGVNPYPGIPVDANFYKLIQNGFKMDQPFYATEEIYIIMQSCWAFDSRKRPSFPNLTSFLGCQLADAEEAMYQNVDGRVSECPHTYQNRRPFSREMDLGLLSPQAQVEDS
# Chain of Gamma-aminobutyric acid receptor subunit alpha-1 (Rattus norvegicus) (P62813 whole entry): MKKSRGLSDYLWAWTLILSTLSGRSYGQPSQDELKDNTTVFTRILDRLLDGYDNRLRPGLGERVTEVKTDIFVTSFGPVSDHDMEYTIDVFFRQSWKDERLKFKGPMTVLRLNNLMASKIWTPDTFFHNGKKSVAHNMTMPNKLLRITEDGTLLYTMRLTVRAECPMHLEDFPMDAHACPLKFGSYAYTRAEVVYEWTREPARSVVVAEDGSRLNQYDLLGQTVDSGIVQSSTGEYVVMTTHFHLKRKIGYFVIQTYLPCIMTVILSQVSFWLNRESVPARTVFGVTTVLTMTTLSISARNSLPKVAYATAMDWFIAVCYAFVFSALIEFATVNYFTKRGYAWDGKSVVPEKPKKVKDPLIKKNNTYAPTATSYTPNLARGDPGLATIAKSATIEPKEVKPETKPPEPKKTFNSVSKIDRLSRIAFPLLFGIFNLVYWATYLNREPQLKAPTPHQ
# Chain of Mitogen-activated protein kinase 11 (Homo sapiens) (Q15759 whole entry): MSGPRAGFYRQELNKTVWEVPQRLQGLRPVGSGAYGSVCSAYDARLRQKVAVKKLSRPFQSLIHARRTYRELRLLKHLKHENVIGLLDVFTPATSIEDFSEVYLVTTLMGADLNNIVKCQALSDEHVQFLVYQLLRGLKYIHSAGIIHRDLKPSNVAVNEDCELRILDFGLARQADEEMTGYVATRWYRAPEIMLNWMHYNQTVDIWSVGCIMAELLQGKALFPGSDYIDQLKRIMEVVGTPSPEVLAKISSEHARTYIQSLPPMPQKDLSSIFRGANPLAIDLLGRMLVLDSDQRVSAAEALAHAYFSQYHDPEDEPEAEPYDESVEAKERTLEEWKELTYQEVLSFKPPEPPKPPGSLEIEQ
smiles,measurement,setting,value
CC(=O)N1CCC(c2ccc(C(=O)NC3=NCCN3)cc2C(F)(F)F)CC1 [BI 0054],residual activity,[1],100%
same,residual activity,[2],87%
same,residual activity,[3],100%
same,residual activity,[4],100%
same,residual activity,[5],98%
same,residual activity,[6],100%
same,residual activity,[7],70%
same,residual activity,[8],100%
same,inhibition,[9],25.3%
CC(=O)N1CCC(c2ccc(C(=O)NC(=N)N)cc2C(F)(F)F)CC1 [BI 9627],residual activity,[10],98%
same,residual activity,[11],105%
same,residual activity,[12],98%
same,residual activity,[13],117%
same,residual activity,[14],99%
same,residual activity,[15],106%
same,residual activity,[16],103%
same,residual activity,[17],89%
same,residual activity,[18],92%
same,residual activity,[19],92%
same,residual activity,[20],61%
same,residual activity,[21],91%
same,residual activity,[22],102%
same,residual activity,[23],100%
same,residual activity,[24],98%
same,residual activity,[1],93%
same,residual activity,[2],98%
same,residual activity,[3],91%
same,residual activity,[4],97%
same,residual activity,[6],100%
same,residual activity,[7],97%
same,residual activity,[8],100%
same,inhibition,[25],-4.89%
same,inhibition,[26],-6.54%
same,inhibition,[27],-9.75%
same,inhibition,[9],13.9%
same,residual activity,[28],96%
same,IC50,[29],31 nM (active)
